Assay results published in ChEMBL document CHEMBL3868595, “Plazomicin is effective in a non-human primate pneumonic plague model” (Bioorg Med Chem, 2016).

Key:
Yersinia pestis [1] = assay: Antibacterial activity against Yersinia pestis Colorado 92 infected in African green monkey 8047 model assessed as bacterial burden in liver at 6.25 mg/kg, iv administered within 6 hrs post onset of sustained fever as 30 mins infusion for 10 days (reference value: 5.2 10^8CFU/g); type: functional, CO92
Yersinia pestis [2] = assay: Antibacterial activity against Yersinia pestis Colorado 92 infected in African green monkey B6127 model assessed as bacterial burden in spleen at 25 mg/kg, iv administered within 6 hrs post onset of sustained fever as 30 mins infusion for 10 days (reference value: 1.6 10^9CFU/g); type: functional, organism-based; conditions: CO92
[3] = AUC (0 to 24 hrs) in African green monkey blood at 35 mg/kg administered as iv infusion twice daily for 7 consecutive days measured on day 1 by LC-MS/MS analysis; type: ADME, organism-based; parameters: dose 35 mg/kg, time < 24 hr, route intravenous; conditions: chlorocebus aethiops
Yersinia pestis [4] = assay: Antibacterial activity against Yersinia pestis Colorado 92 infected in African green monkey B6873 model assessed as bacterial burden in brain at 12.5 mg/kg, iv administered within 6 hrs post onset of sustained fever as 30 mins infusion for 5 days (reference value: 1.9 10^6CFU/g); type: functional, CO92
African green monkey [5] = assay: Toxicity in African green monkey 7929 model infected with Yersinia pestis Colorado 92 assessed as serum alanine aminotransferase level at 25 mg/kg, iv administered within 6 hrs post onset of sustained fever as 30 mins infusion for 10 days (reference value: 63 IU/L); type: organism-based; conditions: chlorocebus sabaeus, in vivo
African green monkey [6] = assay: Toxicity in African green monkey B5994 model infected with Yersinia pestis Colorado 92 assessed as blood urea nitrogen level at 25 mg/kg, iv administered within 6 hrs post onset of sustained fever as 30 mins infusion for 10 days (reference value: 15 mg/dl); type: organism-based; conditions: chlorocebus sabaeus, in vivo
African green monkey [7] = assay: Toxicity in African green monkey B6408 model infected with Yersinia pestis Colorado 92 assessed as serum lactate dehydrogenase level at 25 mg/kg, iv administered within 6 hrs post onset of sustained fever as 30 mins infusion for 10 days (reference value: 249 IU/L); type: organism-based; conditions: chlorocebus sabaeus, in vivo
Yersinia pestis [8] = assay: Antibacterial activity against Yersinia pestis Colorado 92 infected in African green monkey assessed as survival of monkey at 25 mg/kg, iv administered within 6 hrs post onset of sustained fever as 30 mins infusion for 5 days; type: functional; conditions: CO92, iv
African green monkey [9] = assay: Toxicity in African green monkey B6127 model infected with Yersinia pestis Colorado 92 assessed as dehydration at 25 mg/kg, iv administered within 6 hrs post onset of sustained fever as 30 mins infusion for 10 days; type: organism-based; conditions: chlorocebus sabaeus, in vivo
African green monkey [10] = assay: Toxicity in African green monkey 8067 model infected with Yersinia pestis Colorado 92 assessed as serum gamma glutamyl-transferase level at 25 mg/kg, iv administered within 6 hrs post onset of sustained fever as 30 mins infusion for 10 days (reference value: 40 IU/L); type: organism-based; conditions: chlorocebus sabaeus, in vivo
African green monkey [11] = assay: Toxicity in African green monkey B6127 model infected with Yersinia pestis Colorado 92 assessed as tubule damage at 25 mg/kg, iv administered within 6 hrs post onset of sustained fever as 30 mins infusion for 10 days by hematoxylin staining based assay; type: organism-based; conditions: chlorocebus sabaeus, in vivo
[12] = Clearance in African green monkey blood at 35 mg/kg administered as iv infusion twice daily for 7 consecutive days measured on day 1 by LC-MS/MS analysis; type: ADME, organism-based; conditions: chlorocebus aethiops
African green monkey [13] = assay: Toxicity in African green monkey B6428 model infected with Yersinia pestis Colorado 92 assessed as serum lactate dehydrogenase level at 25 mg/kg, iv administered within 6 hrs post onset of sustained fever as 30 mins infusion for 10 days (reference value: 238 IU/L); type: organism-based; conditions: chlorocebus sabaeus, in vivo
Yersinia pestis [14] = assay: Antibacterial activity against Yersinia pestis Colorado 92 infected in African green monkey B6872 model assessed as bacterial burden in kidney at 25 mg/kg, iv administered within 6 hrs post onset of sustained fever as 30 mins infusion for 5 days (reference value: 7.1 10^7CFU/g); type: functional, organism-based; conditions: CO92
Yersinia pestis [15] = assay: Antibacterial activity against Yersinia pestis Colorado 92 infected in African green monkey B6783 model assessed as bacterial burden in tracheobronchial lymph nodes at 12.5 mg/kg, iv administered within 6 hrs post onset of sustained fever as 30 mins infusion for 5 days (reference value: 7.7 10^9CFU/g); type: functional, CO92, Lymph node
Yersinia pestis [16] = assay: Antibacterial activity against Yersinia pestis Colorado 92 infected in African green monkey B6469 model assessed as bacterial burden in liver at 25 mg/kg, iv administered within 6 hrs post onset of sustained fever as 30 mins infusion for 5 days (reference value: 5.2 10^8CFU/g); type: functional, organism-based; conditions: CO92
[17] = Cmax in African green monkey blood at 25 mg/kg administered as iv infusion twice daily for 7 consecutive days measured on day 7 by LC-MS/MS analysis; type: ADME, organism-based; parameters: dose 25 mg/kg, route intravenous; conditions: chlorocebus aethiops
Yersinia pestis [18] = assay: Antibacterial activity against Yersinia pestis Colorado 92 infected in African green monkey C2083 model assessed as bacterial burden in liver at 12.5 mg/kg, iv administered within 6 hrs post onset of sustained fever as 30 mins infusion for 5 days (reference value: 5.2 10^8CFU/g); type: functional, CO92
Yersinia pestis [19] = assay: Antibacterial activity against Yersinia pestis Colorado 92 infected in African green monkey B6783 model assessed as bacterial burden in brain at 12.5 mg/kg, iv administered within 6 hrs post onset of sustained fever as 30 mins infusion for 5 days (reference value: 1.9 10^6CFU/g); type: functional, CO92
African green monkey [20] = assay: Toxicity in African green monkey 7643 model infected with Yersinia pestis Colorado 92 assessed as serum lactate dehydrogenase level at 25 mg/kg, iv administered within 6 hrs post onset of sustained fever as 30 mins infusion for 10 days (reference value: 278 IU/L); type: organism-based; conditions: chlorocebus sabaeus, in vivo
Yersinia pestis [21] = assay: Antibacterial activity against Yersinia pestis Colorado 92 infected in African green monkey B6872 model assessed as bacterial burden in lung at 25 mg/kg, iv administered within 6 hrs post onset of sustained fever as 30 mins infusion for 5 days (reference value: 7.7 10^8CFU/g); type: functional, organism-based; conditions: CO92
[22] = Toxicity in African green monkey 7337 model infected with Yersinia pestis Colorado 92 assessed as total white blood cell count at 25 mg/kg, iv administered within 6 hrs post onset of sustained fever as 30 mins infusion for 10 days (reference value: 7.5 10^3/microL); type: organism-based; conditions: chlorocebus aethiops, in vivo
Yersinia pestis [23] = assay: Antibacterial activity against Yersinia pestis Colorado 92 infected in African green monkey B6988 model assessed as bacterial burden in heart at 6.25 mg/kg, iv administered within 6 hrs post onset of sustained fever as 30 mins infusion for 5 days (reference value: 2.6 10^7CFU/g); type: functional, CO92
Yersinia pestis [24] = assay: Antibacterial activity against Yersinia pestis Colorado 92 infected in African green monkey B6889 model assessed as bacterial burden in liver at 6.25 mg/kg, iv administered within 6 hrs post onset of sustained fever as 30 mins infusion for 5 days (reference value: 5.2 10^8CFU/g); type: functional, CO92
Yersinia pestis [25] = assay: Antibacterial activity against Yersinia pestis Colorado 92 infected in African green monkey B6988 model assessed as bacterial burden in kidney at 6.25 mg/kg, iv administered within 6 hrs post onset of sustained fever as 30 mins infusion for 5 days (reference value: 7.1 10^7CFU/g); type: functional, CO92
Yersinia pestis [26] = assay: Antibacterial activity against Yersinia pestis Colorado 92 infected in African green monkey B6106 model assessed as bacterial burden in kidney at 25 mg/kg, iv administered within 6 hrs post onset of sustained fever as 30 mins infusion for 5 days (reference value: 7.1 10^7CFU/g); type: functional, CO92

Q: Which Activity (Yersinia pestis [1]) does the source give for `CN[C@@H]1[C@@H](O)[C@@H](O[C@@H]2[C@@H](O)[C@H](O[C@H]3OC(CNCCO)=CC[C@H]3N)[C@@H](N)C[C@H]2NC(=O)[C@@H](O)CCN)OC[C@]1(C)O` [PLAZOMICIN] here?
A: Its Activity is 1.3 ×10⁶ CFU/g.

Q: What about the Activity (Yersinia pestis [2]) of the same molecule?
A: The Activity was “Below limit of detection”.

Q: And the AUC(0-t) at 24 h [3]?
A: The AUC(0-t) at 24 h was 306 µg·h/mL.

Q: What about the Activity (Yersinia pestis [4]) of the same molecule?
A: Its Activity is 44 CFU/g.

Q: What about the Activity (African green monkey [5]) of the same molecule?
A: The Activity was 41 IU/L.

Q: And the Activity (African green monkey [6])?
A: Its Activity is 18 mg/dL.

Q: And the Activity (African green monkey [7])?
A: Its Activity is 304 IU/L.

Q: And the survival at 25 mg/kg (Yersinia pestis [8])?
A: Its survival at 25 mg/kg is 69%.

Q: What about the Activity (African green monkey [9]) of the same molecule?
A: The Activity was “Toxic”.

Q: What about the Activity (African green monkey [10]) of the same molecule?
A: The Activity was 26 IU/L.

Q: What about the Activity (African green monkey [11]) of the same molecule?
A: Its Activity is “Toxic”.

Q: And the clearance [12]?
A: Its clearance is 1.67 mL/min/kg.

Q: And the Activity (African green monkey [13])?
A: Its Activity is 299 IU/L.

Q: What about the Activity (Yersinia pestis [14]) of the same molecule?
A: The Activity was “Below limit of detection”.

Q: And the Activity (Yersinia pestis [15])?
A: The Activity was 6.3 ×10⁹ CFU/g.

Q: What about the Activity (Yersinia pestis [16]) of the same molecule?
A: The Activity was “Below limit of detection”.

Q: What about the Cmax [17] of the same molecule?
A: Its Cmax is 106 µg/mL.

Q: And the Activity (Yersinia pestis [18])?
A: The Activity was 4.5 ×10⁹ CFU/g.

Q: And the Activity (Yersinia pestis [19])?
A: Its Activity is 33 CFU/g.

Q: And the Activity (African green monkey [20])?
A: The Activity was 606 IU/L.

Q: What about the Activity (Yersinia pestis [21]) of the same molecule?
A: Its Activity is “Below limit of detection”.

Q: What about the Activity [22] of the same molecule?
A: The Activity was 5 ×10³ /uL.

Q: And the Activity (Yersinia pestis [23])?
A: Its Activity is 4.5 ×10⁶ CFU/g.

Q: And the Activity (Yersinia pestis [24])?
A: Its Activity is 2.2 ×10⁷ CFU/g.

Q: What about the Activity (Yersinia pestis [25]) of the same molecule?
A: The Activity was 23 CFU/g.

Q: And the Activity (Yersinia pestis [26])?
A: The Activity was 17 CFU/g.
